Test results reported in US6992100B2, “sPLA2 inhibitors” (Eli Lilly and Company, priority 2001, dated 2006).
Where a name gives a salt, the structure may show the parent alone.

Assays:
[1] = target: T1, recombinant human secreted phospholipase A2 (Homo sapiens, UniProt P14555); test: chromogenic assay of recombinant human secreted phospholipase A2 inhibition; format: biochemical; details: diheptanoyl thio-PC substrate, pH 7.5, 40° C. 30 minutes, absorbance at 405 nanometers, triplicate
T1 sequence (P14555 21-144): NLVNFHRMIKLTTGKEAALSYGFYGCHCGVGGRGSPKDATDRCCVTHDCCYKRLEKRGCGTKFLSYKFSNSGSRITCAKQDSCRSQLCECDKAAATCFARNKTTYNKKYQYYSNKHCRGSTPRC
From the text: The following chromogenic assay procedure was used to identify and evaluate inhibitors of recombinant human secreted phospholipase A2. The assay described herein has been adapted for high volume screening using 96 well microtiter plates. A general description of this assay method is found in the article, “Analysis of Human Synovial Fluid Phospholipase A2 on Short Chain Phosphatidylcholine-Mixed Micelles: Development of a Spectrophotometric Assay Suitable for a Microtiterplate Reader”, by Laure J. Reynolds, Lori L. Hughes, and Edward A. Dennis, Analytical Biochemistry, 204, pp. 190–197, 1992 (the disclosure of which is incorporated herein by reference): […]
A measured volume of racemic dipheptanoyl thio PC supplied in chloroform at a concentration of 100 mg/ml is taken to dryness and redissolved in 10 millimolar TRITON X-100™ nonionic detergent aqueous solution. […]
5. Read absorbance of wells at 405 nanometers with an automatic plate reader.
Tests were done in triplicate. […] Compounds initially found to be active were re-assayed to confirm their activity and, if sufficiently active, IC50 values were determined. […] In all cases, % inhibition measured at 405 nanometers generated by enzyme reactions containing inhibitors relative to the uninhibited control reactions was determined. […]

| SMILES | IC50 [1] [µM] | melting point [°C] |
| --- | --- | --- |
| NC(=O)c1cccc2c1c1c(OCC(=O)O)c3ccccc3cc1n2Cc1ccccc1 [Example 1, (5-Benzyl-1-carbamoyl-5H-benzo[b]carbazol-11-yloxy)-acetic acid, sodium salt] | 38.6 | – |
| NC(=O)c1cccc2c1c1c(OCC(=O)O)c3c(cc1n2Cc1ccccc1)CCCC3 [Example 2, (5-Benzyl-1-carbamoyl-7,8,9,10-tetrahydro-5H-benzo[b]carbazol-11-yloxy)-acetic acid, sodium salt] | 410 | – |
| NC(=O)c1c2ccsc2nc2c1c1ccccc1n2Cc1ccccc1 [Example 3, 9-Benzyl-9H-1-thia-9,10-diaza-cyclopenta[b]fluorene-4-carboxylic acid amide] | – | 242 to 245 |
